Laboratory results taken from article PMC5491562, “Effects of semaglutide on beta cell function and glycaemic control in participants with type 2 diabetes: a randomised, double-blind, placebo-controlled trial” (Diabetologia, 2017).

What was measured:
[1] = cited from earlier work
Description: Semaglutide (Novo Nordisk, Bagsværd, Denmark) is a GLP-1 analogue in development for the once-weekly treatment of type 2 diabetes. It has 94% structural homology to native human GLP-1, and is based on the same […] technology as liraglutide. Important structural modifications make semaglutide more resistant to degradation by dipeptidyl peptidase-4 and improve binding to albumin [16]. These modifications result in a t ½ of approximately 1 week, making semaglutide appropriate for once-weekly s.c. administration, with a fully retained potency.

[2] = system: participants with type 2 diabetes; details: in vivo
Description: Adverse events (AEs) were recorded from the time of the participant signing informed consent through to the end of follow-up and were regarded as treatment-emergent adverse events (TEAEs) if beginning (or increasing in severity) after the first study dose and no later than the end of follow-up.

[3] = Steady-state pharmacokinetics of semaglutide; details: 1.0 mg s.c. at steady state; estimated in 34 participants; geometric mean (CV, %)
Description: Blood samples were drawn throughout the trial to assess PK (trough values).
time–concentration curve during a dosing interval), calculated using standard non-
compartmental methods using the linear trapezoidal method on the observed concentrations
using actual time points; maximum concentration (Cmax), derived as the maximum of all
half-life (t½), calculated as log2/λz, where λz was estimated by log-linear regression on the

In the case of CC[C@H](C)[C@H](NC(=O)[C@H](Cc1ccccc1)NC(=O)[C@H](CCC(=O)O)NC(=O)[C@H](CCCCNC(=O)COCCOCCNC(=O)COCCOCCNC(=O)CC[C@H](NC(=O)CCCCCCCCCCCCCCCCC(=O)O)C(=O)O)NC(=O)[C@H](C)NC(=O)[C@H](C)NC(=O)[C@H](CCC(N)=O)NC(=O)CNC(=O)[C@H](CCC(=O)O)NC(=O)[C@H](CC(C)C)NC(=O)[C@H](Cc1ccc(O)cc1)NC(=O)[C@H](CO)NC(=O)[C@H](CO)NC(=O)[C@@H](NC(=O)[C@H](CC(=O)O)NC(=O)[C@H](CO)NC(=O)[C@@H](NC(=O)[C@H](Cc1ccccc1)NC(=O)[C@@H](NC(=O)CNC(=O)[C@H](CCC(=O)O)NC(=O)C(C)(C)NC(=O)[C@@H](N)Cc1cnc[nH]1)[C@@H](C)O)[C@@H](C)O)C(C)C)C(=O)N[C@@H](C)C(=O)N[C@@H](Cc1c[nH]c2ccccc12)C(=O)N[C@@H](CC(C)C)C(=O)N[C@H](C(=O)N[C@@H](CCCNC(=N)N)C(=O)NCC(=O)N[C@@H](CCCNC(=N)N)C(=O)NCC(=O)O)C(C)C [semaglutide, Semaglutide], the t½ [1] is listed as “approximately 1 week”, the Anti-semaglutide antibodies [2] is listed as “no anti-” and the “Any TEAE, number of participants with events (%)” value [2] is listed as 28 (75.7). The “Gastrointestinal disorders, number of participants with events (%)” value [2] was 19 (51.4), the “Injury, poisoning and procedural complications, number of participants with events (%)” value [2] was 1 (2.7) and the “Metabolism and nutrition disorders, number of participants with events (%)” value [2] was 4 (10.8). For the same compound, the “Musculoskeletal and connective disorders, number of participants with events (%)” value [2] was 1 (2.7), the “Nervous system disorders, number of participants with events (%)” value [2] was 5 (13.5) and the “Participants with TEAEs” value [2] was 75.7%. The Participants with diarrhoea [2] was 10.8%, the “Participants with gastrointestinal TEAEs” value [2] was 51.4% and the Participants with nausea [2] was 18.9%. The Participants with vomiting [2] was 16.2%, the “Serious TEAE, number of participants with events (%)” value [2] was 2 (5.4) and the “Severe TEAE, number of participants with events (%)” value [2] was 1 (2.7). The Systolic blood pressure [2] was “slightly decreased”, the “TEAE leading to withdrawal, number of participants with events (%)” value [2] was 1 (2.7) and the “Vascular disorders, number of participants with events (%)” value [2] was 3 (8.1). The Vz/F [3] was 11.2 (18.6) l.
